From US5916873A, “Teicoplanin derivatives” (Eli Lilly and Company, priority 1998, dated 1999)
Converted amounts (≈) assume the structure as drawn.

What was measured:
[1] = system: vancomycin-resistant enterococci; assay: mean geometric MIC, vancomycin-resistant enterococci, broth micro-dilution; assay type: cell-based, Enterococcus faecium and Enterococcus faecalis; details: Table 3, representative vancomycin-resistant enterococci
Method: (§1) The antibacterial efficacy of the present teicoplanin derivatives is illustrated by the following tables. The minimal inhibitory concentrations (MICs) were determined using a standard broth micro-dilution assay.

[2] = system: vancomycin-sensitive enterococci; assay: mean geometric MIC, vancomycin-sensitive enterococci, broth micro-dilution; assay type: cell-based, Enterococcus faecium and Enterococcus faecalis; details: Table 3, representative vancomycin-sensitive enterococci
Method: as §1

S. h. 105 = assay: standard broth micro-dilution MIC; assay type: cell-based; details: Table 2B; strain 105
Method: as §1

S. aureus X400 = assay: standard broth micro-dilution MIC; assay type: cell-based; details: Table 2A; strain X400
Method: as §1

S. aureus S13E = assay: standard broth micro-dilution MIC; assay type: cell-based; details: Table 2A; strain S13E
Method: as §1

S. aureus 491 = assay: standard broth micro-dilution MIC; assay type: cell-based; details: Table 2A; strain 491
Method: as §1

S. aureus 447 = assay: standard broth micro-dilution MIC; assay type: cell-based; details: Table 2A; strain 447
Method: as §1

S. aureus 446 = assay: standard broth micro-dilution MIC; assay type: cell-based; details: Table 2A; strain 446
Method: as §1

E. f. 180 = assay: standard broth micro-dilution MIC; assay type: cell-based; details: Table 2B; strain 180
Method: as §1

E. f. 2041 = assay: standard broth micro-dilution MIC; assay type: cell-based; details: Table 2B; strain 2041
Method: as §1

S. aureus X778 = assay: standard broth micro-dilution MIC; assay type: cell-based; details: Table 2A; strain X778
Method: as §1

EC14 = assay: standard broth micro-dilution MIC; assay type: cell-based; details: Table 2C; strain EC14
Method: as §1

St. pneumo P1 = assay: standard broth micro-dilution MIC; assay type: cell-based; details: Table 2C; strain P1
Method: as §1

S. aureus 489 = assay: standard broth micro-dilution MIC; assay type: cell-based; details: Table 2A; strain 489
Method: as §1

S. h. 415 = assay: standard broth micro-dilution MIC; assay type: cell-based; details: Table 2B; strain 415
Method: as §1

S. epi 270 = assay: standard broth micro-dilution MIC; assay type: cell-based; details: Table 2B; strain 270
Method: as §1

St. pyro C203 = assay: standard broth micro-dilution MIC; assay type: cell-based; details: Table 2C; strain C203
Method: as §1

E. f. 180-1 = assay: standard broth micro-dilution MIC; assay type: cell-based; details: Table 2B; strain 180-1
Method: as §1

M. cat M12 = assay: standard broth micro-dilution MIC; assay type: cell-based; details: Table 2C; strain M12
Method: as §1

E. gall. 245 = assay: standard broth micro-dilution MIC; assay type: cell-based; details: Table 2C; strain 245
Method: as §1

S. aureus SA1199B = assay: standard broth micro-dilution MIC; assay type: cell-based; details: Table 2B; strain SA1199B
Method: as §1

E. f. 276 = assay: standard broth micro-dilution MIC; assay type: cell-based; details: Table 2C; strain 276
Method: as §1

S. aureus SA1199 = assay: standard broth micro-dilution MIC; assay type: cell-based; details: Table 2A; strain SA1199
Method: as §1

S. aureus SA1199R = assay: standard broth micro-dilution MIC; assay type: cell-based; details: Table 2B; strain SA1199R
Method: as §1

Compound | Resist. MIC [1] [µg/mL] | Sens. MIC [2] [µg/mL] | MIC S. h. 105 (S. h. 105) [µg/mL] | MIC S. aureus X400 (S. aureus X400) [µg/mL] | MIC S. aureus S13E (S. aureus S13E) [µg/mL] | MIC S. aureus 491 (S. aureus 491) [µg/mL] | MIC S. aureus 447 (S. aureus 447) [µg/mL] | MIC S. aureus 446 (S. aureus 446) [µg/mL] | MIC E. f. 180 (E. f. 180) [µg/mL] | MIC E. f. 2041 (E. f. 2041) | MIC S. aureus X778 (S. aureus X778) [µg/mL] | MIC EC14 (EC14) [µg/mL] | MIC St. pneumo P1 (St. pneumo P1) | MIC S. aureus 489 (S. aureus 489) [µg/mL] | MIC S. h. 415 (S. h. 415) [µg/mL] | MIC S. epi 270 (S. epi 270) | MIC St. pyro C203 (St. pyro C203) | MIC E. f. 180-1 (E. f. 180-1) | MIC M. cat M12 (M. cat M12) | MIC E. gall. 245 (E. gall. 245) [µg/mL] | further results
CC(=O)NC1C(OC2c3ccc(c(Cl)c3)Oc3cc4cc(c3OC3OC(CO)C(O)C(O)C3NCc3ccc(-c5ccccc5)cc3)Oc3ccc(cc3Cl)CC3NC(=O)C(N)c5ccc(O)c(c5)Oc5cc(O)cc(c5)C(NC3=O)C(=O)NC4C(=O)NC3C(=O)NC2C(=O)NC(C(=O)O)c2cc(O)cc(OC4OC(CO)C(O)C(O)C4O)c2-c2cc3ccc2O)OC(CO)C(O)C1O (stereo not shown) [Example 3, Deacyl Teicoplanin, N^Glu-(4-phenylbenzyl) Derivative] | > 64 | 4.6 | – | – | – | – | – | – | – | – | – | – | – | – | – | – | – | – | – | – | –
CC(=O)NC1C(OC2c3ccc(c(Cl)c3)Oc3cc4cc(c3OC3OC(CO)C(O)C(O)C3NCc3ccc(C=Cc5ccccc5)cc3)Oc3ccc(cc3Cl)CC3NC(=O)C(N)c5ccc(O)c(c5)Oc5cc(O)cc(c5)C(NC3=O)C(=O)NC4C(=O)NC3C(=O)NC2C(=O)NC(C(=O)O)c2cc(O)cc(OC4OC(CO)C(O)C(O)C4O)c2-c2cc3ccc2O)OC(CO)C(O)C1O (stereo not shown) [Example 7] | 19.03 | 0.76 | 0.25 (≈ 0.13 µM) | 0.5 (≈ 0.261 µM) | 0.5 (≈ 0.261 µM) | 1 (≈ 0.521 µM) | 2 (≈ 1.04 µM) | 2 (≈ 1.04 µM) | 64 (≈ 33.4 µM) | 0.25 µg/mL (≈ 0.13 µM) | 2 (≈ 1.04 µM) | > 128 | ≤ .06 µg/mL | 0.25 (≈ 0.13 µM) | 32 (≈ 16.7 µM) | 2 µg/mL (≈ 1.04 µM) | 0.25 µg/mL (≈ 0.13 µM) | 1 µg/mL (≈ 0.521 µM) | – | – | –
CC(=O)NC1C(OC2c3ccc(c(Cl)c3)Oc3cc4cc(c3OC3OC(CO)C(O)C(O)C3NCc3ccc(C=Cc5ccccc5)cc3)Oc3ccc(cc3Cl)CC3NC(=O)C(NCc5ccc(C=Cc6ccccc6)cc5)c5ccc(O)c(c5)Oc5cc(O)cc(c5)C(NC3=O)C(=O)NC4C(=O)NC3C(=O)NC2C(=O)NC(C(=O)O)c2cc(O)cc(OC4OC(CO)C(O)C(O)C4O)c2-c2cc3ccc2O)OC(CO)C(O)C1O (stereo not shown) [Example 8] | 0.59 | 0.22 | > 64 | 1 (≈ 0.474 µM) | 2 (≈ 0.948 µM) | 1 (≈ 0.474 µM) | 1 (≈ 0.474 µM) | 1 (≈ 0.474 µM) | 0.25 (≈ 0.118 µM) | 0.125 µg/mL (≈ 0.0592 µM) | 2 (≈ 0.948 µM) | > 64 | 0.25 µg/mL (≈ 0.118 µM) | 0.25 (≈ 0.118 µM) | > 64 | 1 µg/mL (≈ 0.474 µM) | 0.125 µg/mL (≈ 0.0592 µM) | 0.125 µg/mL (≈ 0.0592 µM) | 0.25 µg/mL (≈ 0.118 µM) | 0.25 (≈ 0.118 µM) | MIC S. aureus SA1199B (S. aureus SA1199B): 2 µg/mL (≈ 0.948 µM); MIC E. f. 276 (E. f. 276): 0.5 µg/mL (≈ 0.237 µM); MIC S. aureus SA1199 (S. aureus SA1199): 4 µg/mL (≈ 1.9 µM); MIC S. aureus SA1199R (S. aureus SA1199R): 0.125 µg/mL (≈ 0.0592 µM)
CC(=O)NC1C(OC2c3ccc(c(Cl)c3)Oc3cc4cc(c3OC3OC(CO)C(O)C(O)C3NCc3ccc(Oc5ccccc5)cc3)Oc3ccc(cc3Cl)CC3NC(=O)C(NCc5ccc(Oc6ccccc6)cc5)c5ccc(O)c(c5)Oc5cc(O)cc(c5)C(NC3=O)C(=O)NC4C(=O)NC3C(=O)NC2C(=O)NC(C(=O)O)c2cc(O)cc(OC4OC(CO)C(O)C(O)C4O)c2-c2cc3ccc2O)OC(CO)C(O)C1O (stereo not shown) [Example 10] | 1.7 | 0.19 | > 64 | 0.25 (≈ 0.12 µM) | 2 (≈ 0.957 µM) | 1 (≈ 0.478 µM) | 1 (≈ 0.478 µM) | 0.25 (≈ 0.12 µM) | 0.25 (≈ 0.12 µM) | ≤ .06 µg/mL | 0.5 (≈ 0.239 µM) | > 64 | 0.125 µg/mL (≈ 0.0598 µM) | 0.5 (≈ 0.239 µM) | 8 (≈ 3.83 µM) | 0.5 µg/mL (≈ 0.239 µM) | ≤ .06 µg/mL | ≤ .06 µg/mL | ≤ .06 µg/mL | 0.25 (≈ 0.12 µM) | MIC S. aureus SA1199B (S. aureus SA1199B): 0.5 µg/mL (≈ 0.239 µM); MIC E. f. 276 (E. f. 276): 0.5 µg/mL (≈ 0.239 µM); MIC S. aureus SA1199 (S. aureus SA1199): 2 µg/mL (≈ 0.957 µM); MIC S. aureus SA1199R (S. aureus SA1199R): ≤ .06 µg/mL
CC(=O)NC1C(OC2c3ccc(c(Cl)c3)Oc3cc4cc(c3OC3OC(CO)C(O)C(O)C3NCc3cccc(Oc5ccccc5)c3)Oc3ccc(cc3Cl)CC3NC(=O)C(NCc5cccc(Oc6ccccc6)c5)c5ccc(O)c(c5)Oc5cc(O)cc(c5)C(NC3=O)C(=O)NC4C(=O)NC3C(=O)NC2C(=O)NC(C(=O)O)c2cc(O)cc(OC4OC(CO)C(O)C(O)C4O)c2-c2cc3ccc2O)OC(CO)C(O)C1O (stereo not shown) [Example 11] | 3.4 | 0.11 | > 64 | 0.5 (≈ 0.239 µM) | 2 (≈ 0.957 µM) | 0.25 (≈ 0.12 µM) | 1 (≈ 0.478 µM) | 2 (≈ 0.957 µM) | 1 (≈ 0.478 µM) | ≤ .06 µg/mL | 0.25 (≈ 0.12 µM) | > 64 | ≤ .06 µg/mL | 1 (≈ 0.478 µM) | 16 (≈ 7.66 µM) | ≤ .06 µg/mL | ≤ .06 µg/mL | 0.25 µg/mL (≈ 0.12 µM) | ≤ .06 µg/mL | 0.125 (≈ 0.0598 µM) | MIC S. aureus SA1199B (S. aureus SA1199B): 0.25 µg/mL (≈ 0.12 µM); MIC E. f. 276 (E. f. 276): 0.25 µg/mL (≈ 0.12 µM); MIC S. aureus SA1199 (S. aureus SA1199): 0.5 µg/mL (≈ 0.239 µM); MIC S. aureus SA1199R (S. aureus SA1199R): ≤ .06 µg/mL
CC(=O)NC1C(OC2c3ccc(c(Cl)c3)Oc3cc4cc(c3OC3OC(CO)C(O)C(O)C3NCc3ccc(OC(F)(F)F)cc3)Oc3ccc(cc3Cl)CC3NC(=O)C(NCc5ccc(OC(F)(F)F)cc5)c5ccc(O)c(c5)Oc5cc(O)cc(c5)C(NC3=O)C(=O)NC4C(=O)NC3C(=O)NC2C(=O)NC(C(=O)O)c2cc(O)cc(OC4OC(CO)C(O)C(O)C4O)c2-c2cc3ccc2O)OC(CO)C(O)C1O (stereo not shown) [Example 13] | 45 | 0.25 | 32 (≈ 15.4 µM) | 0.5 (≈ 0.241 µM) | 1 (≈ 0.482 µM) | 0.5 (≈ 0.241 µM) | 1 (≈ 0.482 µM) | 1 (≈ 0.482 µM) | 4 (≈ 1.93 µM) | – | 1 (≈ 0.482 µM) | > 128 | 0.05 µg/mL (≈ 0.0241 µM) | 0.5 (≈ 0.241 µM) | 8 (≈ 3.86 µM) | 0.5 µg/mL (≈ 0.241 µM) | ≤ .06 µg/mL | – | – | – | –
CC(=O)NC1C(OC2c3ccc(c(Cl)c3)Oc3cc4cc(c3OC3OC(CO)C(O)C(O)C3NCc3ccc(OC(F)(F)F)cc3)Oc3ccc(cc3Cl)CC3NC(=O)C(N)c5ccc(O)c(c5)Oc5cc(O)cc(c5)C(NC3=O)C(=O)NC4C(=O)NC3C(=O)NC2C(=O)NC(C(=O)O)c2cc(O)cc(OC4OC(CO)C(O)C(O)C4O)c2-c2cc3ccc2O)OC(CO)C(O)C1O (stereo not shown) [Example 14] | > 32 | 5.28 | 1 (≈ 0.526 µM) | 2 (≈ 1.05 µM) | 2 (≈ 1.05 µM) | 2 (≈ 1.05 µM) | 8 (≈ 4.21 µM) | 4 (≈ 2.11 µM) | > 128 | 8 µg/mL (≈ 4.21 µM) | 4 (≈ 2.11 µM) | > 128 | 1 µg/mL (≈ 0.526 µM) | 2 (≈ 1.05 µM) | > 128 | 2 µg/mL (≈ 1.05 µM) | 1 µg/mL (≈ 0.526 µM) | 8 µg/mL (≈ 4.21 µM) | – | – | –
Deacyl Teicoplanin, Bis(10-undecen-1-yl) Derivative [Example 4] | 1.2 | 1.5 | 16 | 2 | 2 | 4 | 8 | 4 | 8 | – | 4 | > 128 | 1 µg/mL | 2 | 16 | 2 µg/mL | 0.5 µg/mL | – | – | – | –
